Results published in PubChem BioAssay AID248 (DTP/NCI, 2004).
“And” between values parts separate entries of the source, which are not always exact repeats. Equal values may be shown once. Toxic doses and inconclusive results are not listed. Cut-off read from the data, not from the text of the source: active = T/C of 150% or more; inactive = T/C below 125%.

System: L1210 leukemia ip in BDF1 mice, survival T/C
Experiment: NCI In Vivo Anticancer Drug Screen. Data for tumor model L1210 Leukemia (intraperitoneal) in B6D2F1 (BDF1) mice
Conditions: endpoint: mean survival time, higher = longer survival
How it was run: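 Tumor cells were implanted, animals were treated, and survival was followed. The result divides the treated measurement by the vehicle-control measurement.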

[1] = dose: 100.0 mg/kg/injection, schedule: Q01DX001 (ip), vehicle: carboxymethylcellulose (CMC)
[2] = dose: 100.0 mg/kg/injection, schedule: Q01DX009 (ip), vehicle: saline with Tween-80
[3] = dose: 100.0 mg/kg/injection, schedule: Q04DX003 (ip), vehicle: saline with Tween-80
[4] = dose: 200.0 mg/kg/injection, schedule: Q01DX009 (ip), vehicle: saline with Tween-80
[5] = dose: 200.0 mg/kg/injection, schedule: Q04DX003 (ip), vehicle: saline with Tween-80
[6] = dose: 400.0 mg/kg/injection, schedule: Q04DX003 (ip), vehicle: saline with Tween-80
[7] = dose: 200.0 mg/kg/injection, schedule: Q04DX003 (ip), vehicle: saline
[8] = dose: 400.0 mg/kg/injection, schedule: Q04DX003 (ip), vehicle: saline
[9] = dose: 100.0 mg/kg/injection, schedule: Q01DX009 (ip), vehicle: Klucel (hydroxypropylcellulose) (HPC)
[10] = dose: 100.0 mg/kg/injection, schedule: Q01DX001 (ip), vehicle: saline

Measured: T/C

O=C1CCCC2C(=O)CCCC12 (centres undefined)
inactive: dose: 100.0 mg/kg/injection, schedule: Q## X003 (ip), vehicle: saline 102 % of control | dose: 200.0 mg/kg/injection, schedule: Q## X003 (ip), vehicle: saline 98 % of control | dose: 400.0 mg/kg/injection, schedule: Q## X003 (ip), vehicle: saline 101 % of control

O=C1NC(=O)C2CC(Br)C(Br)CC12 (centres undefined)
inactive: dose: 2.5 mg/kg/injection, schedule: Q01DX009 (ip), vehicle: Klucel (hydroxypropylcellulose) (HPC) 100 % of control | dose: 2.5 mg/kg/injection, schedule: Q04DX003 (ip), vehicle: Klucel (hydroxypropylcellulose) (HPC) 98 % of control | dose: 5.0 mg/kg/injection, schedule: Q01DX009 (ip), vehicle: Klucel (hydroxypropylcellulose) (HPC) 100 % of control | dose: 5.0 mg/kg/injection, schedule: Q04DX003 (ip), vehicle: Klucel (hydroxypropylcellulose) (HPC) 100 % of control | dose: 10.0 mg/kg/injection, schedule: Q01DX009 (ip), vehicle: Klucel (hydroxypropylcellulose) (HPC) 100 % of control | dose: 10.0 mg/kg/injection, schedule: Q04DX003 (ip), vehicle: Klucel (hydroxypropylcellulose) (HPC) 98 % of control and 100 % of control

O=C1c2cc(Br)ccc2-c2cc(Br)c([N+](=O)[O-])c(Br)c21
inactive: [1] 106 % of control | dose: 200.0 mg/kg/injection, schedule: Q01DX001 (ip), vehicle: carboxymethylcellulose (CMC) 103 % of control | dose: 400.0 mg/kg/injection, schedule: Q01DX001 (ip), vehicle: carboxymethylcellulose (CMC) 97 % of control

COc1ccc(C2=CCCCC2)cc1
inactive: [2] 97 % of control | [3] 105 % of control | [4] 91 % of control | [5] 110 % of control | dose: 400.0 mg/kg/injection, schedule: Q01DX009 (ip), vehicle: saline with Tween-80 94 % of control | [6] 103 % of control

C/C=C\C(=O)N(CC)C(=NCC)c1ccc(NC(=O)c2ccc(C(=O)Nc3ccc(C(=NCC)N(CC)C(=O)/C=C/C)cc3)cc2)cc1
active: dose: 4.5 mg/kg/injection, schedule: Q01DX015 (ip), vehicle: methylcellulose (MC) 172 % of control | dose: 6.25 mg/kg/injection, schedule: Q01DX015 (ip), vehicle: methylcellulose (MC) 164 % of control
inactive: dose: 0.56 mg/kg/injection, schedule: Q01DX015 (ip), vehicle: methylcellulose (MC) 104 % of control | dose: 1.12 mg/kg/injection, schedule: Q01DX015 (ip), vehicle: methylcellulose (MC) 112 % of control | dose: 2.25 mg/kg/injection, schedule: Q01DX015 (ip), vehicle: methylcellulose (MC) 116 % of control

C(=C/c1ccccc1)/C=C/C(=C/c1ccccc1)c1ccccc1
inactive: [3] 91 % of control | [5] 87 % of control and 96 % of control | [6] 87 % of control and 91 % of control

O=C(O)c1cc([N+](=O)[O-])cc(P(=O)(O)O)c1
inactive: dose: 12.5 mg/kg/injection, schedule: Q01DX001 (ip), vehicle: saline 86 % of control | dose: 12.5 mg/kg/injection, schedule: Q04DX003 (ip), vehicle: saline 96 % of control | dose: 25.0 mg/kg/injection, schedule: Q01DX001 (ip), vehicle: saline 99 % of control | dose: 25.0 mg/kg/injection, schedule: Q04DX003 (ip), vehicle: saline 89 % of control | dose: 50.0 mg/kg/injection, schedule: Q01DX001 (ip), vehicle: saline 87 % of control | dose: 50.0 mg/kg/injection, schedule: Q04DX003 (ip), vehicle: saline 94 % of control | dose: 75.0 mg/kg/injection, schedule: Q01DX009 (ip), vehicle: saline 100 % of control | dose: 115.0 mg/kg/injection, schedule: Q01DX009 (ip), vehicle: saline 92 % of control

CC1=NC(C(=O)O)C(=O)O1 (centres undefined)
inactive: dose: 100.0 mg/kg/injection, schedule: Q01DX009 (ip), vehicle: saline 98 % of control | dose: 100.0 mg/kg/injection, schedule: Q04DX003 (ip), vehicle: saline 105 % of control | dose: 200.0 mg/kg/injection, schedule: Q01DX009 (ip), vehicle: saline 93 % of control | [7] 97 % of control | [8] 103 % of control

C[N+](C)(C)CCS(=O)(=O)Cc1ccccc1
inactive: dose: 75.0 mg/kg/injection, schedule: Q01DX001 (ip), vehicle: carboxymethylcellulose (CMC) 110 % of control | dose: 150.0 mg/kg/injection, schedule: Q01DX001 (ip), vehicle: carboxymethylcellulose (CMC) 108 % of control | dose: 300.0 mg/kg/injection, schedule: Q01DX001 (ip), vehicle: carboxymethylcellulose (CMC) 96 % of control

CC(C)C(C#N)(CCN1CCCCC1)c1cccc2ccccc12 (centres undefined)
inactive: [9] 92 % of control

COC1CC(O[C@H]2CC[C@@]3(C)[C@H](CC[C@@H]4[C@@H]3CC[C@]3(C)[C@@H](C5=CC(=O)OC5)[C@@H](OC(C)=O)C[C@]43O)C2)OC(C)C1O (some centres undefined)
inactive: dose: 5.0 mg/kg/injection, schedule: Q01DX001 (ip), vehicle: saline 94 % of control | dose: 10.0 mg/kg/injection, schedule: Q01DX001 (ip), vehicle: saline 108 % of control | dose: 20.0 mg/kg/injection, schedule: Q01DX001 (ip), vehicle: saline 100 % of control | dose: 40.0 mg/kg/injection, schedule: Q01DX001 (ip), vehicle: saline 103 % of control | dose: 50.0 mg/kg/injection, schedule: Q01DX001 (ip), vehicle: carboxymethylcellulose (CMC) 98 % of control | dose: 80.0 mg/kg/injection, schedule: Q01DX001 (ip), vehicle: saline 114 % of control | [1] 104 % of control

O=Cc1cn[nH]c1-c1ccccc1
inactive: [9] 97 % of control | dose: 100.0 mg/kg/injection, schedule: Q04DX003 (ip), vehicle: Klucel (hydroxypropylcellulose) (HPC) 95 % of control | dose: 200.0 mg/kg/injection, schedule: Q01DX009 (ip), vehicle: Klucel (hydroxypropylcellulose) (HPC) 97 % of control | dose: 200.0 mg/kg/injection, schedule: Q04DX003 (ip), vehicle: Klucel (hydroxypropylcellulose) (HPC) 98 % of control | dose: 400.0 mg/kg/injection, schedule: Q01DX009 (ip), vehicle: Klucel (hydroxypropylcellulose) (HPC) 106 % of control | dose: 400.0 mg/kg/injection, schedule: Q04DX003 (ip), vehicle: Klucel (hydroxypropylcellulose) (HPC) 98 % of control

O=S(=O)(c1ccccc1)C(Cl)c1cccc(Cl)c1 (centres undefined)
inactive: dose: 100.0 mg/kg/injection, schedule: Q04DX002 (ip), vehicle: Klucel (hydroxypropylcellulose) (HPC) 105 % of control | dose: 200.0 mg/kg/injection, schedule: Q04DX002 (ip), vehicle: Klucel (hydroxypropylcellulose) (HPC) 101 % of control | dose: 400.0 mg/kg/injection, schedule: Q04DX002 (ip), vehicle: Klucel (hydroxypropylcellulose) (HPC) 122 % of control

O=C(Nc1ccc(NC(=O)Nc2ccc(C3=NCCCN3)cc2)cc1)Nc1ccc(C2=NCCCN2)cc1
inactive: dose: 8.3 mg/kg/injection, schedule: Q04DX003 (ip), vehicle: saline with Tween-80 107 % of control | dose: 12.0 mg/kg/injection, schedule: Q04DX003 (ip), vehicle: saline with Tween-80 121 % of control | [10] 124 % of control
active: [7] 159 % of control | dose: 264.0 mg/kg/injection, schedule: Q01DX001 (ip), vehicle: saline 208 % of control | [8] 279 % of control

CCOC(=O)C(O)C(Cl)(c1ccccc1)C(C)C (centres undefined)
inactive: dose: 100.0 mg/kg/injection, schedule: Q04DX002 (ip), vehicle: saline 100 % of control | dose: 200.0 mg/kg/injection, schedule: Q04DX002 (ip), vehicle: saline 114 % of control | dose: 400.0 mg/kg/injection, schedule: Q04DX002 (ip), vehicle: saline 111 % of control

CCCCCC/C=N/Nc1ccc([N+](=O)[O-])cc1[N+](=O)[O-]
inactive: dose: 50.0 mg/kg/injection, schedule: Q01DX009 (ip), vehicle: saline with Tween-80 101 % of control | [2] 102 % of control | [4] 91 % of control

CC(C)OC(=O)C(=O)Nc1cccc(Cl)c1
inactive: dose: 100.0 mg/kg/injection, schedule: Q01DX001 (ip), vehicle: Klucel (hydroxypropylcellulose) (HPC) 108 % of control | dose: 200.0 mg/kg/injection, schedule: Q01DX001 (ip), vehicle: Klucel (hydroxypropylcellulose) (HPC) 95 % of control | dose: 400.0 mg/kg/injection, schedule: Q01DX001 (ip), vehicle: Klucel (hydroxypropylcellulose) (HPC) 95 % of control

CN(C)S(=O)(=O)c1ccc(NC(=O)OC(c2ccccc2)(c2ccccc2)c2ccccc2)cc1
inactive: [10] 96 % of control | dose: 200.0 mg/kg/injection, schedule: Q01DX001 (ip), vehicle: saline 92 % of control | dose: 400.0 mg/kg/injection, schedule: Q01DX001 (ip), vehicle: saline 96 % of control

CC(=O)OC1C(CF)OC(n2cnc3c(Cl)ncnc32)C1OC(C)=O (centres undefined)
inactive: dose: 100.0 mg/kg/injection, schedule: Q01DX005 (ip), vehicle: saline 98 % of control | dose: 200.0 mg/kg/injection, schedule: Q01DX005 (ip), vehicle: saline 97 % of control
